In patent US10717734B2, “Indole and azaindole haloallylamine derivative inhibitors of lysyl oxidases and uses thereof” (PHARMAXIS LTD., priority 2016, dated 2020) one finds IC50 data, which are given here for eleven compounds.

Usually IC50 stands for the concentration that inhibits the measured activity by half.

The structures appear in SMILES notation. Where a name gives a salt, the structure may show the parent alone.

Assay type in all cases: biochemical
In assay [1] the target is Bovine LOX (Bos taurus (Bovine), UniProt P33072). Put plainly: LOX inhibition, peroxidase-coupled Amplex Red amine oxidase assay. To be noted: 30 min preincubation at 37° C., putrescine substrate. An excerpt: (§1) Method to Determine the Ability of Compounds of the Invention to Inhibit LOX and LOXL1-4 from Different Sources
Lysyl oxidase (LOX) is an extracellular copper dependent enzyme which oxidizes peptidyl lysine and hydroxylysine residues in collagen and lysine residues in elastin to produce peptidyl alpha-aminoadipic-delta-semialdehydes. […] There are five LOX family members; these are LOX, LOXL1, LOXL2, LOXL3 and LOXL4. LOX and LOXL family members can be acquired as recombinant active proteins from commercial sources, or extracted from animal tissues like bovine aorta, tendons, pig skin; or prepared from cell cultures. The inhibitory effects of the compounds of the present invention were tested against the given LOX-LOXL preparation using a high-throughput coupled colorimetric method (Holt A. and Palcic M., A peroxidase-coupled continuous absorbance plate-reader assay for flavin monoamine oxidases, copper-containing amine oxidases and related enzymes. Nat. Protoc. 2006; 1: 2498-2505). The assay was developed using either 384 or 96 well format. Briefly, in a standard 384 well plate assay 25 μL of a dilution of any of the isoenzymes and orthologues in 1.2 M urea, 50 mM sodium borate buffer (pH 8.2) were added into each well in the presence of 1 μM mofegiline and 0.5 mM pargyline (to inhibit SSAO and MAO-B and MAO-A, respectively). […] Twenty five μL of a reaction mixture containing twice the KM concentration of putrescine (Sigma Aldrich, e.g. 20 mM for LOX, or 10 mM for LOXL2 and LOXL3), 120 μM Amplex Red (Sigma Aldrich) and 1.5 U/mL horseradish peroxidase (Sigma Aldrich) prepared in 1.2 M urea, 50 mM sodium borate buffer (pH 8.2) were then added to the corresponding wells. The above volumes were doubled in the case of 96 wells plate. The fluorescence (RFU) was read every 2.5 min for 30 min at a range of temperatures from 37° to 45° C., excitation 565 nm and emission 590 (Optima; BMG labtech). The slope of the kinetics for each well was calculated using MARS data analysis software (BMG labtech) and this value was used to deduce the IC50 value (Dotmatics).

Assay [2] addresses Human recombinant SSAO/VAP-1 (Homo sapiens (Human), UniProt Q16853). As to the kind of experiment: Human recombinant SSAO/VAP-1 amine oxidase inhibition. To be noted: 30 min preincubation at 37° C., 600 μM benzylamine. The protocol:
Method to Determine the Ability of Compounds of Formula I to Inhibit Human Recombinant SSAO/VAP-1
Human recombinant SSAO/VAP-1 amine oxidase activity was determined using the coupled colorimetric method as described for monoamine oxidase, copper-containing amine oxidases and related enzymes (Holt A. and Palcic M., A peroxidase-coupled continuous absorbance plate-reader assay for flavin monoamine oxidases, copper-containing amine oxidases and related enzymes. Nat Protoc 2006; 1: 2498-2505). Briefly, a cloned cDNA template corresponding to residues 34-763 of human SSAO/VAP-1, and incorporating a mouse Ig kappa (κ) signal sequence, N-terminal flag epitope tag and tobacco etch virus (TEV) cleavage site, was assembled in a mammalian expression vector (pLO-CMV) by Geneart AG. This vector containing human SSAO/VAP-1 residues was transfected into CHO-K1 glycosylation mutant cell line, Lec 8. A clone stably expressing human SSAO/VAP-1 was isolated and cultured in large scale. Active human SSAO/VAP-1 was purified and recovered using immunoaffinity chromatography. This was used as the source for SSAO/VAP-1 activity. A high-throughput colorimetric assay was developed using either 96 or 384 well format. Briefly, in a standard 96 well plate assay 50 μL of purified human SSAO/VAP-1 (0.25 μg/mL) in 0.1 M sodium phosphate buffer (pH 7.4) was added into each well. Test compounds were dissolved in DMSO and tested in a Concentration Response Curve (CRC) with 4-11 data points, typically in the micromolar or nanomolar range after incubation with human SSAO/VAP-1 for 30 min at 37° C. After 30 min incubation, 50 μL of the reaction mixture containing 600 μM benzylamine (Sigma Aldrich), 120 μM Amplex Red (Sigma Aldrich) and 1.5 U/mL horseradish peroxidase (Sigma Aldrich) prepared in 0.1 M sodium phosphate buffer (pH 7.4) were added to the corresponding well. The fluorescence unit (RFU) was read every 2.5 min for 30 min at 37° C. excitation 565 nm and emission 590 (Optima; BMG labtech). The slope of the kinetics for each well was calculated using MARS data analysis software (BMG labtech) and this value was used to deduce the IC50 value (Dotmatics).

The target of assay [3] is Recombinant human MAO-B (Homo sapiens (Human), UniProt P27338). As to the kind of experiment: Human recombinant MAO-B inhibition. The conditions noted are these: benzylamine 100 μM. The protocol:
Method to Determine the Ability of Compounds of Formula I to Inhibit Human Recombinant MAO-B
The specificity of the compounds of this invention was tested by determining their ability to inhibit MAO-B activities in vitro. Recombinant human MAO-B (0.06 mg/mL; Sigma Aldrich) was used as source of MAO-B enzyme activities. The assay was performed in a similar way as for human SSAO/VAP-1 (Example 36) except, the substrate benzylamine was used at 100 μM.

The target of assay [4] is Human LOXL2 (Homo sapiens (Human), UniProt Q9Y4K0). Put plainly: LOXL2 inhibition, peroxidase-coupled Amplex Red amine oxidase assay. The conditions noted are these: 30 min preincubation at 37° C., putrescine substrate.
Description: as §1
Lysyl oxidase (LOX) is an extracellular copper dependent enzyme which oxidizes peptidyl lysine and hydroxylysine residues in collagen and lysine residues in elastin to produce peptidyl alpha-aminoadipic-delta-semialdehydes. […] There are five LOX family members; these are LOX, LOXL1, LOXL2, LOXL3 and LOXL4. LOX and LOXL family members can be acquired as recombinant active proteins from commercial sources, or extracted from animal tissues like bovine aorta, tendons, pig skin; or prepared from cell cultures. The inhibitory effects of the compounds of the present invention were tested against the given LOX-LOXL preparation using a high-throughput coupled colorimetric method (Holt A. and Palcic M., A peroxidase-coupled continuous absorbance plate-reader assay for flavin monoamine oxidases, copper-containing amine oxidases and related enzymes. Nat. Protoc. 2006; 1: 2498-2505). The assay was developed using either 384 or 96 well format. Briefly, in a standard 384 well plate assay 25 μL of a dilution of any of the isoenzymes and orthologues in 1.2 M urea, 50 mM sodium borate buffer (pH 8.2) were added into each well in the presence of 1 μM mofegiline and 0.5 mM pargyline (to inhibit SSAO and MAO-B and MAO-A, respectively). Test compounds were dissolved in DMSO and tested in a Concentration Response Curve (CRC) with 11 data points, typically in the micromolar or nanomolar range after incubation with the enzyme for 30 min at 37° C. Twenty five μL of a reaction mixture containing twice the KM concentration of putrescine (Sigma Aldrich, e.g. 20 mM for LOX, or 10 mM for LOXL2 and LOXL3), 120 μM Amplex Red (Sigma Aldrich) and 1.5 U/mL horseradish peroxidase (Sigma Aldrich) prepared in 1.2 M urea, 50 mM sodium borate buffer (pH 8.2) were then added to the corresponding wells. The above volumes were doubled in the case of 96 wells plate. The fluorescence (RFU) was read every 2.5 min for 30 min at a range of temperatures from 37° to 45° C., excitation 565 nm and emission 590 (Optima; BMG labtech). The slope of the kinetics for each well was calculated using MARS data analysis software (BMG labtech) and this value was used to deduce the IC50 value (Dotmatics).

Sequence of Human LOXL2 (Q9Y4K0 26-774): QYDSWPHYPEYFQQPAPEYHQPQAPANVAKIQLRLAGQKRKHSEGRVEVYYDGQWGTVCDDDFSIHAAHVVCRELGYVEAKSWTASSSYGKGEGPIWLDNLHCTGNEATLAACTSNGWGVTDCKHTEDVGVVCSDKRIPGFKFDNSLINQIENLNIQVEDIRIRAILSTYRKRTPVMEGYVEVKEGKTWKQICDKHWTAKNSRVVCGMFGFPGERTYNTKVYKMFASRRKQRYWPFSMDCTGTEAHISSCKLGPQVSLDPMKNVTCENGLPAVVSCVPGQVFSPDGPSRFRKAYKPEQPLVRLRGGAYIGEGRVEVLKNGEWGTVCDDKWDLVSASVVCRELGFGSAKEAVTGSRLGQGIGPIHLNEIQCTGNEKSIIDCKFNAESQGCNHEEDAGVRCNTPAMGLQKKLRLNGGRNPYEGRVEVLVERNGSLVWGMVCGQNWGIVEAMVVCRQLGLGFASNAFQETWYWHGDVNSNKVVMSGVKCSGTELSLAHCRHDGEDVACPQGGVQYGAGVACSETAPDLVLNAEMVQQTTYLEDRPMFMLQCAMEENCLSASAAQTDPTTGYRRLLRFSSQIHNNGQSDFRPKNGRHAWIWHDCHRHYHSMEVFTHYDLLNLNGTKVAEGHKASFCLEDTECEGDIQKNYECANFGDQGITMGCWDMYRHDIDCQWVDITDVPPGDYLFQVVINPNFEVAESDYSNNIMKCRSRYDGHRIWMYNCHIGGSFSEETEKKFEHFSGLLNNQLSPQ
Sequence of Recombinant human MAO-B (P27338 whole entry): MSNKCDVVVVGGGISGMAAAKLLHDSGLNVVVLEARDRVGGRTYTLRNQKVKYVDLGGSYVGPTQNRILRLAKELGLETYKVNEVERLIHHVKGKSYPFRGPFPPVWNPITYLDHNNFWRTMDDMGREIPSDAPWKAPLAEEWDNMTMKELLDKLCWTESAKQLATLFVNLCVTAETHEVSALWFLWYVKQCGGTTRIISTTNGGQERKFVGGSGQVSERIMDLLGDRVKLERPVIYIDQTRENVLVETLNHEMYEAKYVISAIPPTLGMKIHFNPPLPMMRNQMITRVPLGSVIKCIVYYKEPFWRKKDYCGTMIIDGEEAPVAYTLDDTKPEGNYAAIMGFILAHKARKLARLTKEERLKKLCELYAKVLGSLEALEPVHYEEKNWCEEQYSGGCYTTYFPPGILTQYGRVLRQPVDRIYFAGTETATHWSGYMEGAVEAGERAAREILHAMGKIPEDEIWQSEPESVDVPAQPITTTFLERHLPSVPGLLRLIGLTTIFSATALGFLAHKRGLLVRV
Sequence of Human recombinant SSAO/VAP-1 (Q16853 34-763): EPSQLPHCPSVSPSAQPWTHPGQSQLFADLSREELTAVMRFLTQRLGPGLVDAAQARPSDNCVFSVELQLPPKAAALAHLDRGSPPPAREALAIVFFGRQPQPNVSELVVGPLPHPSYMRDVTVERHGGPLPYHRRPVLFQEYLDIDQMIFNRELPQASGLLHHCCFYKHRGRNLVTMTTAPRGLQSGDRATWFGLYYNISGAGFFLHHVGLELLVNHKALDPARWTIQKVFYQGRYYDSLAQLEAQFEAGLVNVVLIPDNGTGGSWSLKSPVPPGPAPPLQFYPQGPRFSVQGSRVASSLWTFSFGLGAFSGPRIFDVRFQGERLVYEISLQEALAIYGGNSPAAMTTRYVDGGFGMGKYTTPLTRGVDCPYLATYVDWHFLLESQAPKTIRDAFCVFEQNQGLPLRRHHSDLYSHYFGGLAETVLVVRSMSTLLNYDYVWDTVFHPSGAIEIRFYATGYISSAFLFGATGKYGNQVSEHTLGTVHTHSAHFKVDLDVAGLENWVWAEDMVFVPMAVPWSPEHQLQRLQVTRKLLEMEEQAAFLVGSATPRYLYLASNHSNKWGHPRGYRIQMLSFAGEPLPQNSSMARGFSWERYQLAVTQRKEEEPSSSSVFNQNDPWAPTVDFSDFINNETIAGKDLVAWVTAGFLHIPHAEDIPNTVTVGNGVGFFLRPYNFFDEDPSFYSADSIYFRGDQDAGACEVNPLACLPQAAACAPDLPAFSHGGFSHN
Sequence of Bovine LOX (P33072 170-418): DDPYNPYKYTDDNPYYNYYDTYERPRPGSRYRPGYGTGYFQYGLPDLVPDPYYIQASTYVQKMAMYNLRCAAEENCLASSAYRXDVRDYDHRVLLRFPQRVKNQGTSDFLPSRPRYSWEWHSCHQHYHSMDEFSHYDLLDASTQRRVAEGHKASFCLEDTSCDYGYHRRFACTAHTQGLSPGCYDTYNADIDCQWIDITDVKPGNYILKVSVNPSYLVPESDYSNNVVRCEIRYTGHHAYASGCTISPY

As for `Cc1c(Cc2ccc(S(=O)(=O)N(C)C)cc2)c2ncc(F)cc2n1C/C(F)=C/CN` [Compound 24, (Z)-4-((1-(4-amino-2-fluorobut-2-en-1-yl)-6-fluoro-2-methyl-1H-pyrrolo[3,2-b]pyridin-3-yl)methyl)-N,N-dimethylbenzenesulfonamide dihydrochloride], the IC50 in assay [1] was above 0.3 µM; in assay [2], above 3 µM; in assay [3] it was above 3 µM; in assay [4] it was below 0.3 µM.

With `CN(C)S(=O)(=O)c1ccc(Cc2c(C(C)(C)O)n(C/C(F)=C/CN)c3cccnc23)cc1` [Compound 25, (Z)-4-((1-(4-amino-2-fluorobut-2-en-1-yl)-2-(2-hydroxypropan-2-yl)-1H-pyrrolo[3,2-b]pyridin-3-yl)methyl)-N,N-dimethylbenzenesulfonamide dihydrochloride], the IC50 is above 0.3 µM in assay [1], above 3 µM in assay [2], above 3 µM in assay [3] and below 0.3 µM in assay [4].

As for `Cc1c(Cc2ccc(S(=O)(=O)N(C)C)cc2)c2ccccc2n1C/C(F)=C/CN` [Compound 26, (Z)-4-((1-(4-amino-2-fluorobut-2-en-1-yl)-2-methyl-1H-indol-3-yl)methyl)-N,N-dimethylbenzene-sulfonamide hydrochloride], the IC50 in assay [1] is above 0.3 µM; in assay [2], above 3 µM; in assay [3], above 3 µM; in assay [4] it was below 0.3 µM.

`Cc1c(Cc2ccc(S(C)(=O)=O)nc2)c2nc(C3CC3)ccc2n1C/C(F)=C/CN` [Compound 27, (Z)-4-(5-cyclopropyl-2-methyl-3-((6-(methylsulfonyl)pyridin-3-yl)methyl)-1H-pyrrolo[3,2-b]pyridin-1-yl)-3-fluorobut-2-en-1-amine trihydrochloride]: the IC50 in assay [1] was above 0.3 µM; in assay [2], above 3 µM; in assay [3] it was above 3 µM; in assay [4], below 0.3 µM.

Consider `Cc1c(Cc2ccc(S(=O)(=O)N(C)C)cc2)c2nc(C(C)(C)O)ccc2n1C/C(F)=C/CN` [Compound 28, (Z)-4-((1-(4-amino-2-fluorobut-2-en-1-yl)-5-(2-hydroxypropan-2-yl)-2-methyl-1H-pyrrolo[3,2-b]pyridin-3-yl)methyl)-N,N-dimethylbenzenesulfonamide dihydrochloride], for which the IC50 in assay [1] is above 0.3 µM; in assay [2], above 3 µM; in assay [3] it was above 3 µM; in assay [4], below 0.3 µM.

As to `CC(O)c1c(Cc2ccc(S(=O)(=O)N(C)C)cc2)c2ncccc2n1C/C(F)=C/CN` (centres unmarked) [Compound 29, (Z)-4-((1-(4-amino-2-fluorobut-2-en-1-yl)-2-(1-hydroxyethyl)-1H-pyrrolo[3,2-b]pyridin-3-yl)methyl)-N,N-dimethylbenzenesulfonamide dihydrochloride], the IC50 is above 0.3 µM in assay [1], above 3 µM in assay [2], above 3 µM in assay [3] and below 0.3 µM in assay [4].

With `Cc1c(Cc2ccc(S(C)(=O)=O)nc2)c2nc(C(C)(F)F)ccc2n1C/C(F)=C/CN` [Compound 30, (Z)-4-(5-(1,1-difluoroethyl)-2-methyl-3-((6-(methylsulfonyl)pyridin-3-yl)methyl)-1H-pyrrolo[3,2-b]pyridin-1-yl)-3-fluorobut-2-en-1-amine trihydrochloride], the IC50 in assay [1] was above 0.3 µM; in assay [2], above 3 µM; in assay [3] it was above 3 µM; in assay [4] it was below 0.3 µM.

For `Cc1c(Cc2ccc(S(C)(=O)=O)nc2)c2nc(C(F)(F)F)ccc2n1C/C(F)=C/CN` [Compound 31, (Z)-3-fluoro-4-(2-methyl-3-((6-(methylsulfonyl)pyridin-3-yl)methyl)-5-(trifluoromethyl)-1H-pyrrolo[3,2-b]pyridin-1-yl)but-2-en-1-amine trihydrochloride], the IC50 in assay [1] was above 0.3 µM; in assay [2], above 3 µM; in assay [3], above 3 µM; in assay [4], below 0.3 µM.

On to `Cc1c(Cc2ccc(S(=O)(=O)N(C)C)cc2)c2cnccc2n1C/C(F)=C/CN` [Compound 32, (Z)-4-((1-(4-amino-2-fluorobut-2-en-1-yl)-2-methyl-1H-pyrrolo[3,2-c]pyridin-3-yl)methyl)-N,N-dimethylbenzenesulfonamide dihydrochloride], for which the IC50 in assay [1] was above 0.3 µM; in assay [2], above 3 µM; in assay [3], above 3 µM; in assay [4] it was below 0.3 µM.

As to `CC(C)c1c(Cc2ccc(S(C)(=O)=O)cc2)c2ncccc2n1C/C(F)=C/CN` [Compound 33, (Z)-3-fluoro-4-(2-isopropyl-3-(4-(methylsulfonyl)benzyl)-1H-pyrrolo[3,2-b]pyridin-1-yl)but-2-en-1-amine dihydrochloride], the IC50 in assay [1] is above 0.3 µM; in assay [2], above 3 µM; in assay [3], above 3 µM; in assay [4] it was below 0.3 µM.

Regarding `Cc1cc(S(C)(=O)=O)ccc1Cc1c(C)n(C/C(F)=C/CN)c2cccnc12` [Compound 34, (Z)-3-fluoro-4-(2-methyl-3-(2-methyl-4-(methylsulfonyl)benzyl)-1H-pyrrolo[3,2-b]pyridin-1-yl)but-2-en-1-amine dihydrochloride], the IC50 in assay [1] is above 0.3 µM; in assay [2], above 3 µM; in assay [3], above 3 µM; in assay [4], below 0.3 µM.
